“Also recorded” adds a separate entry of the source.
How the values were obtained:
MAT2A = MAT2A expression in NCM460 cells; type: cell-based, human; details: 5 mM SAMe or 1 mM MTA, 6 hrs
Method: Total RNA was isolated by the EZgeno total RNA isolation kit (Genemega, San Giego, Calif.), and subjected to reverse transcription (RT) by using M-MLV Reverse transcriptase (Invitrogen). 2 μl of RT product was subjected to quantitative real-time PCR analysis. The primers and TaqMan probes for MAT2A, MAT2β and Universal PCR Master Mix were purchased from ABI (Foster City, Calif.). Hypoxanthine phosphoribosyl-transferase 1 (HPRT1) and ubiquitin C (UBC) were used as housekeeping genes (48). The thermal profile consisted of 1 cycle at 95° C. for 15 minutes followed by 40 cycles at 95° C. for 15 seconds and at 60° C. for 1 minute. The expression of MAT2A and MAT2β was checked by normalizing the Ct of MAT2A and MAT2β to that of the control housekeeping gene (HPRT1 or UBC) (49). The delta Ct obtained was used to find the relative expression of MAT genes according to the formula: Relative expression=2·^ΔCt, where ΔCt=ΔCt of MAT genes in colon cancer or treated cells—ΔCt of MAT genes in normal colon or control cells.
NCM460 cell line was originally established in 1996 as the first non-malignant colonic epithelial cell line derived from the transverse colon (43). When first developed, cells formed both monolayer and in suspension, express villin and cytokeratin staining (43). […] The NCM460 cells in monolayer have features of transverse colon crypt cells (69). […]

MAT2β = experiment: Colonic MAT2β mRNA in mice fed SAMe or MTA; type: in vivo; details: 150 mg/kg/d SAMe, 6 days
Method: FIG. 30. Effects of oral SAMe and MTA on colonic mRNA levels of MAT2A, MAT2 β, and […]. Mice were fed SAMe (150 to 450 mg/kg/d) or MTA (75 or 150 mg/kg/d) in drinking water for 6 days. Colonic mucosa was scrapped off and gene expression measured by real-time PCR.

[1] = Intestinal SAMe levels in mice given SAMe or MTA in drinking water; details: mouse, in vivo
Method: Three-month old male C57/B6 mice were fed ad libitum a standard diet (Harland Tekiad irradiated mouse diet 7912, Madison, Wis.), caged individually and had free access to water supplemented with SAMe ([…]), MTA (75 mg/kg/d), phosphate buffered saline (vehicle for SAMe) or DMSO (0.2%, vehicle for MTA) for 6 days. SAMe and MTA were made fresh daily. The amount of water intake, body weight, and animal behavior were closely monitored. After 6 days, animals were sacrificed, intestine was cut open along the longitudinal axis, and mucosa was stripped from the intestine (46). Mucosa was weighed and a portion processed for SAMe measurement as described below, the rest snap frozen for subsequent RNA extraction.
(§1) Cellular SAMe and MTA levels were measured (51) and polyamine levels were determined (52).

c-FLIP = c-FLIP expression and caspase 8 activation in RKO cells; type: cell-based, human; details: 6 hrs, with concomitant caspase 8 activation
Method: FIG. 27. […] RKO cells were treated with SAMe (0.25-5 mM) or MTA (0.25-2 mM) for 6 hrs and c-FLIP isoform mRNA levels were measured using real-time PCR (A) and protein levels of c-FLIP and caspase 8 by Western blots (B).

NCM460 cells = experiment: Toxicity and apoptosis in NCM460 normal colonic epithelial cells; type: cell-based, human
Method: In these experiments the total treatment duration was limited to 16 hrs to avoid the apoptotic effect. […] Apoptosis was measured by Hoechst staining or Annexin V and propidium iodide staining on flow cytometry.

[2] = Tolerability of oral SAMe and MTA in mice; type: in vivo; details: oral in drinking water, 6 days; weight gain and water consumption similar to controls
Description: SAMe and MTA were made fresh daily. The amount of water intake, body weight, and animal behavior were closely monitored. After 6 days, animals were sacrificed, intestine was cut open along the longitudinal axis, and mucosa was stripped from the intestine (46). Mucosa was weighed and a portion processed for SAMe measurement as described below, the rest snap frozen for subsequent RNA extraction.

MAT III = MAT III (Rattus norvegicus, UniProt P13444); details: cited from earlier work
HT-29 cells [3] = experiment: Cell growth by MTT assay in HT-29 cells; type: cell-based, human
Method: Cell growth was measured by the cell growth determination kit MTT from Sigma (St. Louis, Mo.). The MTT assay measures the cell proliferation rate and reduction in cell viability. HT-29 or RKO cells (1×10^4/well) were plated in 96-well plates and treated with growth factors (all 100 ng/ml), SAMe (0.5 to 5 mM), MTA (0.5 to 1 mM), alone or in combination for 16 hrs in serum-free medium. To determine the effect of MAT2A RNAi on mitogen-induced changes in MTT, cells were first treated with RNAi for 48 hrs followed by mitogen treatment for another 24 hrs.

HT-29 cells [4] = experiment: Cellular SAMe and MTA levels in HT-29 cells; type: cell-based, human
Method: HT-29 and RKO cells were obtained from the Cell Culture Core of the USC Liver Disease Research Center and grown according to instructions provided by the American Type Culture Collection (ATCC, Rockville, Md.). Prior to treatment with growth factors, SAMe or MTA, medium was changed to 0.1% FBS overnight.
as §1

Chain of MAT III (P13444 whole entry): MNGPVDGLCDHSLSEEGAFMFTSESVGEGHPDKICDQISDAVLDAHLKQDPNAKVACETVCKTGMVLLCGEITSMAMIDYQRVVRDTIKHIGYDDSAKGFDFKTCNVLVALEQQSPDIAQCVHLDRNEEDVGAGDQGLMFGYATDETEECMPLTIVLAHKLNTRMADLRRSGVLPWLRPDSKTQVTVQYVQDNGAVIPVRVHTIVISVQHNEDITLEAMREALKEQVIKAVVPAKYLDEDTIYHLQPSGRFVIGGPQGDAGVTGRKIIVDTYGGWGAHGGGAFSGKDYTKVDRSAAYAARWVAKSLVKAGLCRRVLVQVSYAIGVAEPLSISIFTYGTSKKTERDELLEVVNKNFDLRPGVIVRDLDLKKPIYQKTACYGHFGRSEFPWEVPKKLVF

## C[S+](CC[C@H](N)C(=O)O)C[C@H]1O[C@@H](n2cnc3c(N)ncnc32)[C@H](O)[C@@H]1O (stereo partly shown) [SAMe, S-adenosylmethionine]
MAT2A
  reduction of MAT2A expression: 40%
MAT2β
  inhibition of MAT2β expression: 50%
[1]
  SAMe level in proximal small intestine: 800 % of control
  increase in SAMe level in colonic mucosa: ~200%
c-FLIP
  c-FLIP expression: lowered c-FLIP expression
NCM460 cells
  menadione (MQ)-induced toxicity in NCM460 cells: protected against menadione (MQ)-induced toxicity
[2]
  tolerability / toxicity: well tolerated; also recorded: no apparent toxicity
MAT III; MAT III
  Inhibition by SAMe: No
MAT III; at 500 μM SAMe
  stimulation of MAT III: up to 8 fold
HT-29 cells [3]; SAMe 5 mM, 24 hr
  growth: 71 % of control
HT-29 cells [3]; SAMe 0.5 to 5 mM, MTA 0.5 to 1 mM, 16 hrs
  growth, agent alone: no effect on growth
HT-29 cells [3]; SAMe 0.5 to 5 mM, MTA 0.5 to 1 mM, 16 hrs, with growth factors
  mitogenic action of leptin, EGF and IGF-1: blocked the mitogenic action
HT-29 cells [4]; 5 mM SAMe for 16 hrs
  increase of intracellular MTA levels after SAMe treatment: 19 fold
  intracellular MTA levels after SAMe treatment: 1,906%
HT-29 cells [4]; 6 hrs, SAMe 2 mM
  MTA level: 0.192 ± 0.036 nmol/mg protein
  SAMe level: 1.44 ± 0.13 nmol/mg protein
HT-29 cells [4]; 6 hrs, SAMe 5 mM
  MTA level: 0.354 ± 0.096 nmol/mg protein
  SAMe level: 2.19 ± 0.21 nmol/mg protein
HT-29 cells [4]; 16 hrs, SAMe 2 mM
  MTA level: 0.261 ± 0.035 nmol/mg protein
  SAMe level: 1.28 ± 0.01 nmol/mg protein
HT-29 cells [4]; 16 hrs, SAMe 5 mM
  MTA level: 0.934 ± 0.105 nmol/mg protein
  SAMe level: 1.83 ± 0.01 nmol/mg protein

Source: patent US20100166727A1, “S-Adenosylmethionine And Methylthioadensosine In Chemoprevention And Treatment Of Colon Polyps And Cancer” (UNIVERSITY OF SOUTHERN CALIFORNIA, priority 2007, published 2010)
